Test results published in US20230277582A1, “TREATMENT OF PRIMARY AND/OR SECONDARY LUNG TUMORS USING GASEOUS NITRIC OXIDE INHALATION” (Beyond Air, Inc., priority 2020, published 2023).
Where two headings read alike, the source gives them in different places.

What was measured:
CT26 colon cancer cells = assay: In vitro NO treatment, cell viability by XTT assay, CT26; assay type: cell-based, mouse
Method: (§1) 10,000-20,000 cells from a cancer cell line were plated onto a 96-well plate. After an overnight incubation at 37° C. and 5% CO2, the cell culture medium was removed, and the plate was placed inside an exposure chamber made of acrylic glass, which was closed and sealed with paraffin wax tape. A gas delivery line was inserted from the top of the chamber. NO supplied from 800 ppm NO cylinders, as well as air and oxygen, were delivered to the chamber at a gas flow rate of 1 liter per minute. NO was diluted to the indicated concentration and the final oxygen concentration inside the chamber was adjusted to about 21%, to avoid cell death due to lack of oxygen. Gas exposure lasted for the indicated time period, for one to seven exposure cycles. Gas exchange during this time was permitted via an outlet hole located close to the bottom of the chamber. Cancer cells exposed to air served as a control group. Cell viability was determined using an XTT (2,3-bis-(2-methoxy-4-nitro-5-sulfophenyl)-2H-tetrazolium-5-carboxanilide) assay, whereby conversion of the XTT by viable cells to the corresponding formazan dye was quantified by spectrophotometry.
CT26 colon cancer cells (a mouse colon cancer line) were grown in 100 μl RPMI (Roswell Park Memorial Institute medium)-based tissue culture medium, supplemented with 1% streptomycin-penicillin and 10% fetal bovine serum, and plated 1 day before exposure to NO in 10 ml RPMI-based tissue culture medium; and then exposed to 400 ppm NO for 1 hour, or to 200 ppm NO for one or more cycles of 15 minutes (separated by 30 minutes of rest at 37° C.), using the procedures described hereinabove. Immediately after each exposure, 100 μl of the abovementioned supplemented RPMI-based tissue culture medium was added to each well and plated were stored at 37° C. and 5% CO2.
CT26 colon cancer cells were exposed to 1 μM of the chemotherapeutic agent 5-fluorouracil (5FU), in addition to 200 ppm NO for 30 minutes, using the procedures described hereinabove, except that after overnight incubation at 37° C. and 5% CO2, the 5FU was added to the cell culture medium, and the cells were subjected to a second overnight incubation prior to being placed within the exposure chamber, as described therein.
In another experiment, CT26 cells were exposed to 0.5-50 μM 5FU and 4 cycles of 200 ppm NO for 10 minutes (separated by 30 minutes of rest at 37° C.), using the procedures described hereinabove, except that the 5FU was added immediately after the last exposure to NO (or air), followed by incubation for about 24 hours.

healthy dogs = assay: Safety study of intermittent NO inhalation in healthy dogs; assay type: in vivo, dog; conditions: 250-400 ppm NO, 30 days
Method: (§2) The effect of intermittent inhalation of NO at a concentration of 250-400 ppm was tested for 30 days in healthy dogs and for 12 days in healthy rats.

healthy rats = assay: Safety study of intermittent NO inhalation in healthy rats; assay type: in vivo, rat; conditions: 250-400 ppm NO, 12 days
Method: as §2

LLC1 lung cancer cells = assay: In vitro NO treatment, cell viability by XTT assay, LLC1; assay type: cell-based; conditions: Mus musculus, read-out: LLC1 cells not viable
Method: as §1
Furthermore, LLC1 lung cancer cells (a mouse lung cancer line) were exposed to 200 ppm NO for 15 or 30 minutes, using the procedures described hereinabove.

S. aureus = conditions: 200 ppm gNO; cited from earlier work
[1] = test system: human fibroblast, keratinocyte, endothelial, monocyte and macrophage cells; conditions: 200 ppm gNO; cited from earlier work

O=c1[nH]cc(F)c(=O)[nH]1 [5FU, 5-fluorouracil]
effect on CT26 cells (viability) (CT26 colon cancer cells; 1 μM 5FU alone, overnight incubation (FIG. 4)): little effect

[N]=O [NO, nitric oxide]
macroscopic or microscopic effect of NO inhalation (healthy dogs): No macroscopic or microscopic effect
macroscopic or microscopic effect of NO inhalation (healthy rats): No macroscopic or microscopic effect
CT26 cell viability (CT26 colon cancer cells; 400 ppm NO for 1 hour (FIG. 1)): not viable
cytotoxicity at 200 ppm (CT26 colon cancer cells; Mus musculus, CT26, 0.5 h, read-out: reduction of CT26 cell viability): 51%
viability at 200 ppm (CT26 colon cancer cells; Mus musculus, CT26, read-out: CT26 cell viability (decreased to)): ~40%
CT26 cell viability (CT26 colon cancer cells; seven cycles of 15 minutes, 200 ppm NO, compared to four cycles (FIG. 2C)): did not produce an additional reduction in viability
CT26 cell viability (CT26 colon cancer cells; single 15 minute exposure to 200 ppm NO (FIG. 2A)): little effect
cytotoxicity at 200 ppm (LLC1 lung cancer cells; LLC1, 0.25 h, 200 ppm NO for 15 minutes (FIG. 3)): 41%
cytotoxicity at 200 ppm (LLC1 lung cancer cells; LLC1, 0.5 h, 200 ppm NO for 30 minutes (FIG. 3)): 65%
S. aureus burden in rabbit wound model (S. aureus): reduced S. aureus burden
cytotoxicity to human cells in culture [1]: without being cytotoxic
